Data on 19 compounds can be found in ChEMBL document CHEMBL3045795, “Peroxidizing Phytotoxic Activity of 1, 3, 4-Thiadiazolidine-2-thiones and 1, 2, 4-Triazolidine-3, 5-dithiones” (J Pestic Sci, 1995).

Assay [1] addresses T1, Protoporphyrinogen IX oxidase (Zea mays, UniProt Q9FYV8).
T1 sequence (Q9FYV8 whole entry): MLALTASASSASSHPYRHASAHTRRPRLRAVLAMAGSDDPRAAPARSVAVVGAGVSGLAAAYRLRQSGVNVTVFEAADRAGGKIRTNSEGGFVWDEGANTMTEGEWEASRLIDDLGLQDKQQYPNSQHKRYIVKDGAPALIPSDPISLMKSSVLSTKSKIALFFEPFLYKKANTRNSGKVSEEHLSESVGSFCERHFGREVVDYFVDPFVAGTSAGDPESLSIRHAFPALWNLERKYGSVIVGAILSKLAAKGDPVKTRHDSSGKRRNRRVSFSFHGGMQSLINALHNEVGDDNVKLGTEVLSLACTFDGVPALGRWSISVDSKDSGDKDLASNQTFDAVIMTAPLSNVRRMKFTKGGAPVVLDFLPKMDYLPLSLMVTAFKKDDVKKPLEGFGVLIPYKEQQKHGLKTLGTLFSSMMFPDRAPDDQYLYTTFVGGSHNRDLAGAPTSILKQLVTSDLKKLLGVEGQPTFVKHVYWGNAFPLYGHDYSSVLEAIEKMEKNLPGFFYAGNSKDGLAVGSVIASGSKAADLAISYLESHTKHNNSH
Nature of the assay: Inhibition of Protoporphyrinogen IX oxidase in Zea mays cv. Anjou (maize) seedlings etioplasts homogenates assessed as reduction in protoporphyrin IX production by fluorescence spectroscopy. The settings on record: read-out: pI50 (converted).

For assay [2], the target named is T2, Protoporphyrinogen IX oxidase (UniProt C1N1S5).
T2 sequence (whole entry): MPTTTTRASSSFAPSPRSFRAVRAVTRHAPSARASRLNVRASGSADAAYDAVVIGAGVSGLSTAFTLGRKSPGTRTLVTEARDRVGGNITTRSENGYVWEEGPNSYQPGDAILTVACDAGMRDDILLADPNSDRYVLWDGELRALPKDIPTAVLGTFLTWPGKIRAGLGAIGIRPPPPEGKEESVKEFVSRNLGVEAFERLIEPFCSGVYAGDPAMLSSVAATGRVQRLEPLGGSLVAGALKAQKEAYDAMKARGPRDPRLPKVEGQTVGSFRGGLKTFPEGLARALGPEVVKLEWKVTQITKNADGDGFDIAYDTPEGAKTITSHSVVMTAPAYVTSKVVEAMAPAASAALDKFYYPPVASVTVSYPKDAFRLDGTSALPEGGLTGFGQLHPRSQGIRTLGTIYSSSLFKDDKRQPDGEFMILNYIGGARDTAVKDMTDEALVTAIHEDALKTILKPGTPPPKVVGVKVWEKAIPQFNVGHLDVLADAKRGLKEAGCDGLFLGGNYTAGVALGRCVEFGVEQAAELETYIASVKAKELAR
Nature of the assay: Inhibition of Protoporphyrinogen IX oxidase in Scenedesmus acutus assessed as protoporphyrin IX level per ml of packed cell volume by HPLC. Also: test concentration or dose not given here.

Assay [3] has as its system Scenedesmus acutus. Nature of the assay: Phytotoxicity against Scenedesmus acutus assessed as reduction in chlorophyll content by spectrophotometry. The class given is functional, organism-based. The following applies: read-out: pI50 (converted).
The subject of assay [4] is Scenedesmus acutus. Nature of the assay: Growth inhibition of Scenedesmus acutus assessed as reduction in packed cell volume. The assay is classed as functional, organism-based. The settings on record: read-out: pI50 (converted).
Assay [5] relates to Scenedesmus acutus. Nature of the assay: Peroxidizing phytotoxicity against Scenedesmus acutus assessed as ethane production after 20 hr by gas chromatography. The class given is functional, organism-based. The settings on record: read-out: pI50 (converted).

For the compound `CC(C)Oc1cc(/N=c2\sc(=S)n3n2CCCC3)c(F)cc1Cl`, the IC50 in assay [1] is 617 nM; in assay [3], 11.2 nM; in assay [4], 13.8 nM; in assay [5], 166 nM. For the same compound, the Activity in assay [2] was 30.7 nmol.
Regarding `S=c1s/c(=N\c2ccccc2)n2n1CCCC2`, the IC50 in assay [1] was greater than 31600 nM; in assay [3], 13800 nM; in assay [4] it was 14100 nM; in assay [5], 4370 nM. In assay [2], the Activity is 10.8 nmol.
For `S=c1n(-c2ccc(Br)cc2)c(=S)n2n1CCCC2` the same measures were 7.24 nM, 37.2 nM, 64.6 nM, 46.8 nM and 67.9 nmol.
Regarding `S=c1n(-c2ccc(OCc3ccc(Cl)cc3)cc2)c(=S)n2n1CCCC2`, the IC50 in assay [1] is 12 nM; in assay [3] it was 15.5 nM; in assay [4] it was 17.4 nM; in assay [5], 22.9 nM. Also, the Activity in assay [2] was 80.3 nmol.
Take `COC(=O)CSc1cc(-n2c(=S)n3n(c2=S)CCCC3)c(F)cc1Cl`: the Activity in assay [2] is 56 nmol. Further, the IC50 is 141 nM in assay [3], 186 nM in assay [4] and 158 nM in assay [5].
As for `C#CCOc1cc(/N=c2\sc(=S)n3n2CCCC3)c(F)cc1Cl`, the IC50 in assay [1] is 204 nM; in assay [3], 5.5 nM; in assay [4], 7.24 nM; in assay [5], 79.4 nM. Also, in assay [2], the Activity was 63.5 nmol.
The corresponding values for `S=c1s/c(=N\c2ccc(Cl)cc2)n2n1CCCC2` are 1100 nM, 234 nM, 339 nM, 550 nM and 20.3 nmol.
The corresponding values for `Fc1cc(Cl)ccc1/N=c1\sc(=S)n2n1CCCC2` are 1100 nM, 67.6 nM, 120 nM, 91.2 nM and 31.5 nmol.
With `CCOc1cc(Oc2ccc(C(F)(F)F)cc2Cl)ccc1[N+](=O)[O-]` [OXYFLUORFEN], the IC50 is 7.94 nM in assay [1], 21.4 nM in assay [3], 30.9 nM in assay [4] and 41.7 nM in assay [5]. Moreover, the Activity in assay [2] was 65.6 nmol.
Regarding `CC(C)Oc1cc(-n2c(=S)n3n(c2=S)CCCC3)c(F)cc1Cl`, the IC50 in assay [1] was 1.2 nM; in assay [3], 5.25 nM; in assay [4], 7.59 nM; in assay [5], 67.6 nM. Also, the Activity in assay [2] stood at 60.2 nmol.
With `Fc1cc(Cl)ccc1-n1c(=S)n2n(c1=S)CCCC2`, the IC50 in assay [1] is 7.24 nM; in assay [3] it was 18.2 nM; in assay [4], 23.4 nM; in assay [5], 27.5 nM. In assay [2], the Activity was determined as 70.3 nmol.
Consider `C#CCOc1cc(-n2c(=S)n3n(c2=S)CCCC3)c(F)cc1Cl`, for which the IC50 is 8.91 nM in assay [1], 1.7 nM in assay [3], 2.04 nM in assay [4] and 7.24 nM in assay [5]. In addition, in assay [2], the Activity came to 87.2 nmol.
For the compound `S=c1n(-c2ccccc2)c(=S)n2n1CCCC2`, the IC50 was 3240 nM in assay [1], 6310 nM in assay [3], 7940 nM in assay [4] and 2040 nM in assay [5]. In assay [2], the Activity came to 13.2 nmol.
The corresponding values for `S=c1s/c(=N\c2ccc(OCc3ccc(Cl)cc3)cc2)n2n1CCCC2` are 813 nM, 20 nM, 21.9 nM, 120 nM and 30.7 nmol.
The corresponding values for `S=c1n(-c2ccc(Cl)cc2)c(=S)n2n1CCCC2` are 6.76 nM, 43.7 nM, 61.7 nM, 50.1 nM and 50.3 nmol.
On to `COC(=O)CSc1cc(/N=c2\sc(=S)n3n2CCCC3)c(F)cc1Cl`, for which the IC50 in assay [1] was 120 nM; in assay [3], 191 nM; in assay [4] it was 245 nM; in assay [5], 389 nM. In assay [2], the Activity stood at 34.1 nmol.
Take `S=c1s/c(=N\c2ccc(Br)cc2)n2n1CCCC2`: the IC50 in assay [1] was 741 nM; in assay [3], 148 nM; in assay [4], 162 nM; in assay [5] it was 550 nM. In assay [2], the Activity came to 25.3 nmol.
The corresponding values for `Cc1cc(Cl)ccc1-n1c(=S)n2n(c1=S)CCCC2` are 151 nM, 85.1 nM, 105 nM, 85.1 nM and 63.3 nmol.
For the compound `Cc1cc(Cl)ccc1/N=c1\sc(=S)n2n1CCCC2`, the IC50 was 7590 nM in assay [1], 275 nM in assay [3], 457 nM in assay [4] and 513 nM in assay [5]. Besides, the Activity in assay [2] was determined as 20.3 nmol.
